In ChEMBL document CHEMBL5352401, “Novel cudraisoflavone J derivatives as potent neuroprotective agents for the treatment of Parkinson's disease via the activation of Nrf2/HO-1 signaling” (Eur J Med Chem, 2022):
The source made the active and inactive calls. The calls are words filed in the database; no cut-off is given here.

Columns and labels:
PC-12 [1] = assay: Neuroprotective activity against 6-OHDA-induced cytotoxicity in rat PC-12 cells at 10 to 30 uM for 4 hrs followed by exposure to 6-OHDA measured after 24 hrs by MTT assay; type: functional, cell-based; conditions: dose 10-30 µM, time 28.0 hrs
PC-12 [2] = assay: Cytotoxicity in rat PC-12 cells assessed as cell viability measured at 10 to 30 uM for 24 hrs by MTT assay; type: functional, cell-based; conditions: dose 10-30 µM
PC-12 [3] = assay: Cytotoxicity in rat PC-12 cells assessed as cell viability measured at 30 uM for 24 hrs by MTT assay; type: functional, cell-based
PC-12 [4] = assay: Neuroprotective activity against 6-OHDA-induced cytotoxicity in rat PC-12 cells at 30 uM for 4 hrs followed by exposure to 6-OHDA measured after 24 hrs by MTT assay; type: functional, cell-based; conditions: time 28.0 hrs
PC-12 [5] = assay: Cytotoxicity in rat PC-12 cells assessed as cell viability incubated at 0.1 to 30 uM for 24 hrs by MTT assay relative to control; type: functional; conditions: dose 0.1-30 µM
PC-12 [6] = assay: Neuroprotective activity against 6-OHDA-induced cytotoxicity in rat PC-12 cells at 0.1 to 30 uM for 4 hrs followed by exposure to 6-OHDA measured after 24 hrs by MTT assay relative to control; type: functional; conditions: dose 0.1-30 µM, time 28 hrs
PC-12 [7] = assay: Neuroprotective activity against 6-OHDA-induced cytotoxicity in rat PC-12 cells for 4 hrs followed by exposure to 6-OHDA measured after 24 hrs by MTT assay; type: functional, cell-based; conditions: dose 0.1-30 µM, time 28.0 hrs

For `COc1ccc(-c2coc3cc(OC)c4c(c3c2=O)OC(C)(C)C(O)C4)cc1` (stereo unspecified), the Activity (PC-12 [1]) was “inactive” and the Activity (PC-12 [2]) was “inactive”.
For `COc1ccc(-c2coc3cc(O)c4c(c3c2=O)OC(C)(C)C(O)C4)c(OC)c1` (stereo unspecified), the Activity (PC-12 [1]) was “inactive” and the Activity (PC-12 [2]) was “inactive”.
With `COc1ccc(-c2coc3cc(O)c4c(c3c2=O)OC(C)(C)C(O)C4)cc1OC` (stereo unspecified) the Activity (PC-12 [1]) was “inactive” and the Activity (PC-12 [2]) was “inactive”.
`C#CCN[C@@H]1CCc2ccccc21` was tested, and the Activity (PC-12 [1]) was “Active” and the Activity (PC-12 [2]) was “Active”.
In the case of `COc1cc(OC)cc(-c2coc3cc(O)c4c(c3c2=O)OC(C)(C)C(O)C4)c1` (stereo unspecified), the Activity (PC-12 [1]) is reported as “inactive” and the Activity (PC-12 [2]) is reported as “inactive”.
`CC(C)Oc1ccc(-c2coc3cc4c(c(OC(C)C)c3c2=O)C=CC(C)(C)O4)cc1` was tested, and the Activity (PC-12 [3]) was “Active”.
With `CC1(C)Oc2c(c(O)cc3occ(-c4ccc(C(F)(F)F)cc4)c(=O)c23)CC1O` (stereo unspecified) the Activity (PC-12 [2]) was “Active”.
`CC1(C)Oc2c(c(O)cc3occ(-c4cccs4)c(=O)c23)CC1O` (stereo unspecified) was tested, and the Activity (PC-12 [4]) was “inactive”.
In the case of `Cc1cc(-c2coc3cc(O)c4c(c3c2=O)OC(C)(C)C(O)C4)ccc1F` (stereo unspecified), the Activity (PC-12 [1]) is reported as “inactive” and the Activity (PC-12 [2]) is reported as “Active”.
For `CC1(C)Oc2c(c(O)cc3occ(-c4ccccc4)c(=O)c23)CC1O` (stereo unspecified), the Activity (PC-12 [5]) was 75%, the Activity (PC-12 [1]) was “Active” and the Activity (PC-12 [4]) was “Active”. For the same molecule, the Activity (PC-12 [2]) was “inactive”, the “inhibition (INH)” value (PC-12 [6]) was 49.9% and the Activity (PC-12 [7]) was “Dose-Dependent Effect”.
In the case of `CC1(C)Oc2c(c(O)cc3occ(-c4cccc(OC(F)(F)F)c4)c(=O)c23)CC1O` (stereo unspecified), the Activity (PC-12 [2]) is reported as “Active”.
With `CC1(C)Oc2c(c(O)cc3occ(-c4cccc(C#N)c4)c(=O)c23)CC1O` (stereo unspecified) the Activity (PC-12 [2]) was “Active”.
For `CC1(C)Oc2c(c(O)cc3occ(-c4ccc(F)cc4)c(=O)c23)CC1O` (stereo unspecified), the Activity (PC-12 [2]) was “Active”.
In the case of `Cc1cc(C)cc(-c2coc3cc(O)c4c(c3c2=O)OC(C)(C)C(O)C4)c1` (stereo unspecified), the Activity (PC-12 [5]) is reported as 73%, the Activity (PC-12 [4]) is reported as “Active” and the Activity (PC-12 [2]) is reported as “Active”. The “inhibition (INH)” value (PC-12 [6]) was 45.4% and the Activity (PC-12 [7]) was “Dose-Dependent Effect”.
In the case of `CC1(C)Oc2c(c(O)cc3occ(-c4cc(F)cc(F)c4)c(=O)c23)CC1O` (stereo unspecified), the Activity (PC-12 [1]) is reported as “inactive” and the Activity (PC-12 [2]) is reported as “Active”.
With `CC(C)Oc1ccc(-c2coc3cc4c(c(O)c3c2=O)C=CC(C)(C)O4)cc1` the Activity (PC-12 [1]) was “inactive”.
`CC1(C)Oc2c(c(O)cc3occ(-c4ccncc4)c(=O)c23)CC1O` (stereo unspecified) was tested, and the Activity (PC-12 [3]) was “Active”.
`CC1(C)Oc2c(c(O)cc3occ(-c4ccc(OC(F)(F)F)cc4)c(=O)c23)CC1O` (stereo unspecified) was tested, and the Activity (PC-12 [2]) was “Active”.
`CCOc1ccc(-c2coc3cc4c(c(OCC)c3c2=O)C=CC(C)(C)O4)cc1` was tested, and the Activity (PC-12 [3]) was “Active”.
`COc1ccc(-c2coc3cc(O)c4c(c3c2=O)OC(C)(C)CC4)cc1` was tested, and the Activity (PC-12 [2]) was “Active”.
